# Where “and” joins values, the source holds several entries; their conditions need not be identical. Equal values may be shown once. Read-outs that look alike come from different tables or passages of the source.
# Experiments:
# [1] = Fluidity (angle of repose, bulk density, tap density); conditions: BT-1000 powder comprehensive property tester
# [2] = Water, 25° C., 24 h
# [3] = Comparison of sieving performance; conditions: 30 g, 80 mesh sieve, 1400 rpm, 20 minutes
# [4] = RH80%/25° C. 24 h
# physchem = conditions: thermodynamic from solid
# [5] = Influencing factors test (physical and chemical stability) of dapagliflozin crystal forms, Test Example 1
# Description: The materials of the two crystal forms were directly exposed for 10 days to conditions of high temperature of 60° C.±2° C., light irradiation of 4500LX±500LX, and high humidity RH75%±5%, to investigate the physical stability and chemical stability of the two crystal forms.
# [6] = Particle size by laser particle size analyzer; conditions: water as a dispersant
# [7] = artificial gastric juice, 25 °C, simulated gastric fluid
# [8] = artificial intestinal juice, 25 °C, fassgf or other biorelevant
# [9] = citrate buffer of pH 3.0, 25 °C, pH 3, aqueous buffer
# [10] = hydrochloric acid of pH 1.0, 25 °C, pH 1, simulated gastric fluid
# [11] = phosphate buffer, 25 °C, pH 6.8, aqueous buffer
# [12] = 60° C., directly exposed 10 days
# [13] = Light irradiation of 5000 Lx, 10 days
smiles,measurement,setting,value
CCOc1ccc(Cc2cc([C@@H]3O[C@H](CO)[C@@H](O)[C@H](O)[C@H]3O)ccc2Cl)cc1 [dapagliflozin-sarcosine cocrystal],Angle of repose (°),[1],40 °
same,Bulk density,[1],0.40 g/mL
same,Tap density,[1],0.58 g/mL
same,Solubility,[2],1590 µg/mL
same,Average yield (%) after sieving,[3],91.8%
same,Situations after sieving,[3],Almost no large particles on the
same,"Yield after sieving (%, n = 3), single runs",[3],"93.6, % and 90.5, % and 91.3%"
same,Hygroscopicity,[4],does not have hygroscopicity
same,Percentage of weight gain (%),[4],0.00%
same,solubility at 12 h,"physchem; acetate buffer of pH 4.0, 25 °C, pH 4, aqueous buffer",1640 µg/mL
same,solubility at 24 h,"physchem; acetate buffer, 25 °C, pH 4, aqueous buffer",1620 µg/mL
same,Solubility,"physchem; aqueous media of different pH, 25 °C, aqueous buffer",1400 to 1600 µg/mL
same,solubility at 12 h,physchem; [7],1560 µg/mL
same,solubility at 24 h,physchem; [7],1550 µg/mL
same,solubility at 12 h,physchem; [8],1400 µg/mL
same,solubility at 24 h,physchem; [8],1430 µg/mL
same,solubility at 12 h,physchem; [9],1620 µg/mL
same,solubility at 24 h,physchem; [9],1610 µg/mL
same,solubility at 12 h,physchem; [10],1600 µg/mL
same,solubility at 24 h,physchem; [10],1560 µg/mL
same,solubility at 12 h,physchem; [11],1580 µg/mL
same,solubility at 24 h,physchem; [11],1580 µg/mL
same,"Impurity 10 (RT 33.01 min, RRT 1.61) content",[5]; 0 day,0.03
same,"Impurity 11 (RT 33.72 min, RRT 1.65) content",[5]; 0 day,0.01
same,"Impurity 12 (RT 34.69 min, RRT 1.69) content",[5]; 0 day,0.03
same,"Impurity 13 (RT 39.10 min, RRT 1.91) content",[5]; 0 day,0.01
same,Number of impurities,[5]; 0 day,4
same,Property (appearance),[5]; 0 day,White
same,Total content of impurities (%),[5]; 0 day,0.07%
same,"Impurity 10 (RT 33.01 min, RRT 1.61) content",[5]; [12],0.02
same,"Impurity 11 (RT 33.72 min, RRT 1.65) content",[5]; [12],0.01
same,"Impurity 12 (RT 34.69 min, RRT 1.69) content",[5]; [12],0.02
same,"Impurity 13 (RT 39.10 min, RRT 1.91) content",[5]; [12],0.01
same,Number of impurities,[5]; [12],4
same,Property (appearance),[5]; [12],White
same,Total content of impurities (%),[5]; [12],0.06%
same,"Impurity 10 (RT 33.01 min, RRT 1.61) content",[5]; [13],0.02
same,"Impurity 11 (RT 33.72 min, RRT 1.65) content",[5]; [13],0.01
same,"Impurity 12 (RT 34.69 min, RRT 1.69) content",[5]; [13],0.02
same,"Impurity 13 (RT 39.10 min, RRT 1.91) content",[5]; [13],0.01
same,Number of impurities,[5]; [13],4
same,Property (appearance),[5]; [13],White
same,Total content of impurities (%),[5]; [13],0.05%
same,"Impurity 10 (RT 33.01 min, RRT 1.61) content","[5]; RH75%, 10 days",0.02
same,"Impurity 11 (RT 33.72 min, RRT 1.65) content","[5]; RH75%, 10 days",0.01
same,"Impurity 12 (RT 34.69 min, RRT 1.69) content","[5]; RH75%, 10 days",0.02
same,"Impurity 13 (RT 39.10 min, RRT 1.91) content","[5]; RH75%, 10 days",0.01
same,Number of impurities,"[5]; RH75%, 10 days",4
same,Property (appearance),"[5]; RH75%, 10 days",White
same,Total content of impurities (%),"[5]; RH75%, 10 days",0.06%
same,"Number of impurities detected and total content of impurities detected, change","[5]; all the test conditions, 10 days vs 0 day",did not increase
same,Crystal form stability (XRPD),"[5]; each influencing factor (60° C., 5000LX, RH75%) for 10 days vs 0 day",did not change
same,D10 (μm),[6],5.151 μm
same,D50 (μm),[6],24.83 μm
same,D90 (μm),[6],89.93 μm

# From patent US20230372375A1, “SGLT-2 INHIBITOR SARCOSINE CO-CRYSTAL, PREPARATION METHOD THEREFOR AND USE THEREOF” (Beijing Creatron Institute of Pharmaceutical Research Co. …, priority 2020, published 2023)
